In the supplement of paper PMC13380429:
± gives the standard deviation of the averaged measurements.

Experiments:
Details in all cases: 72 h
Vero E6 [1] = assay: drug sensitivity score (DSS) for viability; higher = more toxic; extreme values may be limits of the assay
HepG2 [2] = assay: as above
Calu-3 [3] = assay: as above
Caco-2 [4] = assay: as above
U2OS [5] = assay: as above
Vero E6 [6] = assay: relative viability EC50 (midpoint between 100% and the lowest measured viability); higher = less toxic
HepG2 [7] = assay: as above
Calu-3 [8] = assay: as above
Caco-2 [9] = assay: as above
U2OS [10] = assay: as above
Vero E6 [11] = assay: cell viability relative to DMSO; higher = less toxic
HepG2 [12] = assay: as above
Calu-3 [13] = assay: as above
Caco-2 [14] = assay: as above
U2OS [15] = assay: as above

| Compound | drug sensitivity score (Vero E6 [1]) | drug sensitivity score (HepG2 [2]) | drug sensitivity score (Calu-3 [3]) | drug sensitivity score (Caco-2 [4]) | drug sensitivity score (U2OS [5]) | relative viability EC50 (Vero E6 [6]) | relative viability EC50 (HepG2 [7]) | relative viability EC50 (Calu-3 [8]) | relative viability EC50 (Caco-2 [9]) | relative viability EC50 (U2OS [10]) | cell viability (Vero E6 [11]; 1 nM) | cell viability (Vero E6 [11]; 10 nM) | cell viability (Vero E6 [11]; 100 nM) | cell viability (Vero E6 [11]; 1000 nM) | cell viability (Vero E6 [11]; 10000 nM) | cell viability (HepG2 [12]; 1 nM) | cell viability (HepG2 [12]; 10 nM) | cell viability (HepG2 [12]; 100 nM) | cell viability (HepG2 [12]; 1000 nM) | cell viability (HepG2 [12]; 10000 nM) | cell viability (Calu-3 [13]; 1 nM) | cell viability (Calu-3 [13]; 10 nM) | cell viability (Calu-3 [13]; 100 nM) | cell viability (Calu-3 [13]; 1000 nM) | cell viability (Calu-3 [13]; 10000 nM) | cell viability (Caco-2 [14]; 1 nM) | cell viability (Caco-2 [14]; 10 nM) | cell viability (Caco-2 [14]; 100 nM) | cell viability (Caco-2 [14]; 1000 nM) | cell viability (Caco-2 [14]; 10000 nM) | cell viability (U2OS [15]; 1 nM) | cell viability (U2OS [15]; 10 nM) | cell viability (U2OS [15]; 100 nM) | cell viability (U2OS [15]; 1000 nM) | cell viability (U2OS [15]; 10000 nM) |
| --- | --- | --- | --- | --- | --- | --- | --- | --- | --- | --- | --- | --- | --- | --- | --- | --- | --- | --- | --- | --- | --- | --- | --- | --- | --- | --- | --- | --- | --- | --- | --- | --- | --- | --- | --- |
| C[C@H](N)C(=O)N[C@@H](CCC(N)=O)C(=O)O [dipeptamin] | 0 | 0 | 0 | 0 | 0 | > 10 µM | > 10 µM | > 10 µM | > 10 µM | > 10 µM | 99.5% | 98.1% | 94.1% | 98% | 95.4% | 104% | 93.2% | 95.5% | 100% | 96.1% | 101% | 98.9% | 94.7% | 95.1% | 103% | 97.4% | 104% | 96.5% | 95.2% | 110% | 95.9% | 106% | 98.6% | 103% | 98.9% |
| Cc1ccc(Cl)c(OCC(O)CNC(C)(C)C)c1 (stereo not given) [bupranolol] | 0 | 0 | 0 | 0 | 0 | > 10 µM | > 10 µM | > 10 µM | > 10 µM | > 10 µM | 93.6% | 97.5% | 97.2% | 100% | 103% | 99.3% | 97.6% | 104% | 97.8% | 94.6% | 98.2% | 99.8% | 93.6% | 105% | 104% | 109% | 89% | 91.5% | 99.5% | 107% | 101% | 98.1% | 99.6% | 101% | 104% |
| O=C(O)CCc1cc(I)c(Oc2ccc(O)cc2)c(I)c1 [diiodothyropropionic-acid] | 0.7 | 0 | 0 | 0 | 0 | > 10 µM | > 10 µM | > 10 µM | > 10 µM | > 10 µM | 105% | 103% | 104% | 87.1% | 92.1% | 104% | 95% | 113% | 103% | 99.8% | 96.8% | 101% | 94.5% | 99.6% | 93.6% | 113% | 124% | 94.4% | 113% | 109% | 96.2% | 99.1% | 95.8% | 98.4% | 96.6% |
| CC(O)COC[C@H]1O[C@@H]2O[C@H]3[C@H](O)[C@@H](O)[C@@H](O[C@H]4[C@H](O)[C@@H](O)[C@@H](O[C@H]5[C@H](O)[C@@H](O)[C@@H](O[C@H]6[C@H](O)[C@@H](O)[C@@H](O[C@H]7[C@H](O)[C@@H](O)[C@@H](O[C@H]8[C@H](O)[C@@H](O)[C@@H](O[C@H]1[C@H](O)[C@H]2O)O[C@@H]8COCC(C)O)O[C@@H]7COCC(C)O)O[C@@H]6COCC(C)O)O[C@@H]5COCC(C)O)O[C@@H]4COCC(C)O)O[C@@H]3COCC(C)O (stereo partly drawn) [hydroxypropyl-beta-cyclodextrin] | 0 | 0 | 0 | 0 | 0 | > 10 µM | > 10 µM | > 10 µM | > 10 µM | > 10 µM | 104% | 96.1% | 102% | 101% | 103% | 98.6% | 97.5% | 98.3% | 95.9% | 98.2% | 100% | 91.5% | 94.8% | 98.8% | 100% | 92.3% | 97.1% | 103% | 100% | 95.7% | 97.5% | 98.5% | 104% | 98.2% | 98.4% |
| CC(C)=CCC[C@](C)(O[C@@H]1O[C@H](CO)[C@@H](O)[C@H](O)[C@H]1O)[C@H]1CC[C@]2(C)[C@@H]1[C@H](O)C[C@@H]1[C@@]3(C)CC[C@H](O)C(C)(C)[C@@H]3CC[C@]12C [ginsenoside-C-K] | 0 | 0.7 | 0 | 0 | 0 | > 10 µM | > 10 µM | > 10 µM | > 10 µM | > 10 µM | 109% | 99.7% | 103% | 98.4% | 98.1% | 108% | 111% | 106% | 92.7% | 85.9% | 89.3% | 97.3% | 98.9% | 101% | 99.4% | 91.7% | 104% | 94.5% | 96.2% | 102% | 99.4% | 94.7% | 99.7% | 97.5% | 99.3% |
| Cc1[nH]c(/C=C2\C(=O)Nc3cc(-c4ccccc4)ccc32)c(C)c1CCC(=O)O [SU16f] | 0 | 1 | 0 | 0.7 | 0.1 | > 10 µM | > 10 µM | > 10 µM | > 10 µM | > 10 µM | 92.9% | 93.3% | 93.8% | 92.8% | 87% | 92.3% | 95.1% | 87.6% | 97.9% | 76.8% | 99.8% | 108% | 107% | 103% | 104% | 98.7% | 100% | 97.5% | 91.9% | 83.3% | 104% | 97% | 102% | 95.5% | 89.1% |
| C[C@H](NC[C@H](O)CP(=O)(O)Cc1ccccc1)c1ccc(Cl)c(Cl)c1 | 0 | 0 | 0 | 0 | 0 | > 10 µM | > 10 µM | > 10 µM | > 10 µM | > 10 µM | 99.4% | 96.8% | 98.1% | 94.8% | 98.1% | 96.9% | 92.4% | 94.8% | 80.1% | 95% | 102% | 107% | 95.3% | 100% | 106% | 104% | 100% | 95.9% | 99.5% | 89.8% | 96.5% | 101% | 94.6% | 97.9% | 94.3% |
| COCCOc1ccc(N2CCN(CCn3ncc4c3nc(N)n3nc(-c5ccco5)nc43)CC2)cc1 [preladenant] | 0 | 0 | 0 | 0 | 0 | > 10 µM | > 10 µM | > 10 µM | > 10 µM | > 10 µM | 91.2% | 99.5% | 97.7% | 102% | 99.6% | 97% | 105% | 94% | 99.6% | 93.2% | 106% | 112% | 97.2% | 92.3% | 107% | 98.1% | 99% | 98.1% | 91.8% | 93.1% | 97.6% | 101% | 95.3% | 95.1% | 96.9% |
| COc1ccc(CCN2CCN(CCCc3ccccc3)CC2)cc1OC [cutamesine] | 0 | 0 | 0 | 0 | 0 | > 10 µM | > 10 µM | > 10 µM | > 10 µM | > 10 µM | 102% | 92.5% | 102% | 96.2% | 95.6% | 91.5% | 97.2% | 88.9% | 98.4% | 85% | 95.9% | 110% | 102% | 119% | 96.8% | 97.9% | 95.6% | 96% | 92.9% | 98% | 106% | 100% | 104% | 93.5% | 96.8% |
| C[C@H]1CN(C[C@H](Cc2ccccc2)C(=O)NCC(=O)O)CC[C@@]1(C)c1cccc(O)c1 [alvimopan] | 0 | 0 | 0 | 0 | 0 | > 10 µM | > 10 µM | > 10 µM | > 10 µM | > 10 µM | 90.4% | 96.2% | 94.8% | 95.8% | 104% | 96.8% | 103% | 110% | 99.3% | 104% | 107% | 91.9% | 104% | 111% | 104% | 102% | 91.8% | 93.6% | 107% | 106% | 100% | 97.3% | 101% | 104% | 102% |
| C[C@]12CC[C@@H]3c4ccc(O)cc4CC[C@H]3[C@@H]1C[C@@H](O)[C@@H]2O [estriol] | 0 | 0 | 0 | 0 | 0 | > 10 µM | > 10 µM | > 10 µM | > 10 µM | > 10 µM | 96% | 99.1% | 96.5% | 89.2% | 105% | 106% | 103% | 96.8% | 90.4% | 96.1% | 94.5% | 96.5% | 95.6% | 93.7% | 103% | 97.5% | 96.3% | 101% | 105% | 105% | 99.3% | 97.4% | 101% | 101% | 102% |
| CC(C)N[C@H]1CCn2c(=O)[nH]c3cccc(c32)[C@@H]1O [zilpaterol] | 0 | 0 | 0 | 0 | 0 | > 10 µM | > 10 µM | > 10 µM | > 10 µM | > 10 µM | 98.1 ± 11% | 99.5 ± 0.28% | 94.8 ± 8.6% | 99 ± 7.4% | 104 ± 9.6% | 104.9 ± 0.57% | 105.5 ± 0.78% | 104 ± 2% | 95.95 ± 0.071% | 105 ± 3% | 103 ± 1.5% | 97.2 ± 10% | 105 ± 1.1% | 93 ± 3.9% | 97.5 ± 0.42% | 92.8 ± 2.5% | 97.75 ± 0.071% | 100 ± 3.2% | 96.9 ± 2.5% | 95.3 ± 9.4% | 100 ± 2.1% | 99.1 ± 5.2% | 97.4 ± 3% | 98.6 ± 8.3% | 101 ± 3.3% |
| Nc1nc(Nc2ccccc2)nc2c1ncn2[C@@H]1O[C@H](CO)[C@@H](O)[C@H]1O [CV-1808] | 0 | 0 | 0 | 0 | 0 | > 10 µM | > 10 µM | > 10 µM | > 10 µM | > 10 µM | 94% | 93% | 94.5% | 96.3% | 97.2% | 95.4% | 94.2% | 109% | 98.8% | 94.9% | 101% | 106% | 93% | 110% | 106% | 98.9% | 93% | 101% | 105% | 99.3% | 103% | 100% | 98.5% | 106% | 105% |
| NCCCC[C@H](N)C(=O)O [L-lysine] | 0 | 0 | 0 | 0 | 0 | > 10 µM | > 10 µM | > 10 µM | > 10 µM | > 10 µM | 108% | 106% | 99.6% | 98.8% | 104% | 111% | 102% | 103% | 93.2% | 114% | 92.7% | 102% | 106% | 97.7% | 105% | 110% | 102% | 96.8% | 86% | 106% | 103% | 96.7% | 101% | 97.5% | 99.5% |
